Test results as given in publication PMC9120017, “Inhibition mechanism of the chloride channel TMEM16A by the pore blocker 1PBC” (Nature Communications, 2022).
In brackets after ≈: the same amount, converted by molar mass.

Experiment: Solubility of 1PBC in aqueous solution
Type: physicochemical

N#Cc1c(C(F)(F)F)cc(O)n2c1nc1ccccc12 [1PBC]
solubility: ~100 µM (≈ 27.7 µg/mL)
